Reference: ChEMBL document CHEMBL4673225, “Highly Selective PTK2 Proteolysis Targeting Chimeras to Probe Focal Adhesion Kinase Scaffolding Functions” (J Med Chem, 2019)
The source made the active and inactive calls. The rule behind the calls is not given here.

Columns and labels:
HSC-3 = test: Antiproliferative activity against HSC-3 in human […] cells at 3 uM incubated for 21 days; assay type: functional, cell-based; details: time 21.0 day
HuH-1 = test: Antiproliferative activity against human HuH-1 cells incubated for 7 to 14 days by methylene blue dye based anchorage independent growth assay; assay type: functional, cell-based; details: time 7-14 day
Focal adhesion kinase 1 [1] = target: T1, Focal adhesion kinase 1 (Homo sapiens, UniProt Q05397); test: Inhibition of human PTK2 (411-689 residues) expressed in Hi-5 cells
Target sequence in this assay (Q05397 whole entry, the tested form may be a part): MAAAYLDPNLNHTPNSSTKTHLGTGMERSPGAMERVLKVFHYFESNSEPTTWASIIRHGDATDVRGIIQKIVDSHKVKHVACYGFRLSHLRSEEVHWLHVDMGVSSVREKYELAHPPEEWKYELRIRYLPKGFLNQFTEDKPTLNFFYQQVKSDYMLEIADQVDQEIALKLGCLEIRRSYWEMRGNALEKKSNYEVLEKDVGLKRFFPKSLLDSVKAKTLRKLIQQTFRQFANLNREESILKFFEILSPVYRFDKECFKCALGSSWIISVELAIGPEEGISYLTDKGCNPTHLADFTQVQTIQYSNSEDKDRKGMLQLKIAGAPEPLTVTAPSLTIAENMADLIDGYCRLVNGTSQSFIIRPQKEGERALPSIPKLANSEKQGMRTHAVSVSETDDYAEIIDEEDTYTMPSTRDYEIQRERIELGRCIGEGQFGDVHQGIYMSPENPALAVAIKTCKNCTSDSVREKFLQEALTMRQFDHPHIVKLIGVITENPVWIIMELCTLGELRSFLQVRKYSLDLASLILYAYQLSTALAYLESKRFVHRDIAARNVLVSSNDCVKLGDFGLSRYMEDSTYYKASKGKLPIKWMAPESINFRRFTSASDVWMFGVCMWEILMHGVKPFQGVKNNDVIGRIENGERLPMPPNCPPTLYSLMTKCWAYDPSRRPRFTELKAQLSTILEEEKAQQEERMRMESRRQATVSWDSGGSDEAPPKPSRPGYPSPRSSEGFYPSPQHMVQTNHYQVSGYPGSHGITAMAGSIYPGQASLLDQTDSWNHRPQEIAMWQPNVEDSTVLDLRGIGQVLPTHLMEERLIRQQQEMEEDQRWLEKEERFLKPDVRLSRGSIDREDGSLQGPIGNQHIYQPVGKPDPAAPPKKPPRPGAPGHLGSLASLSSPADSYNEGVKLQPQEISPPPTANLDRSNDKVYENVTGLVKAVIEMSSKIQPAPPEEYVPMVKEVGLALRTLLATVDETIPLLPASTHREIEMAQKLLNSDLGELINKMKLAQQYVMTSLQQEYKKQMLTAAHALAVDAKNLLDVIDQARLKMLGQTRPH

[2] = Fraction unbound in 10% FCS; assay type: ADME, cell-free, Bos taurus; details: cattle, 10% fetal calf serum (FCS)
A549 [3] = test: Induction of general kinase degradation in human A549 cells at 3 uM incubated for 18 hrs by mass spectrometry based total proteome analysis; assay type: functional, cell-based
SNU-387 [4] = test: cells; details: Homo sapiens, SNU-387, 144 h, read-out: pIC50 (converted)
Description: Antiproliferative activity against human SNU-387 cells incubated for 6 days by CellTiter-Glo luminescent cell viability assay

CFPAC-1 = test: Antiproliferative activity against C32 in human CFPAC-1 cells at 3 uM incubated for 21 day; assay type: functional, cell-based
cells [5] = details: Homo sapiens, Hep3B, 144 h, read-out: pIC50 (converted)
Description: Antiproliferative activity against human Hep3B2.1-7 cells incubated for 6 days by CellTiter-Glo luminescent cell viability assay

[6] = target: T2, Protein cereblon/Focal adhesion kinase 1 (Homo sapiens, UniProt Q05397+Q96SW2); test: Protac activity at CRBN/PTK2 in human HLE cells assessed as induction of PTK2 degradation incubated for 18 hrs by protein capillary electrophoresis method relative to control; assay type: cell-based
Target sequence in this assay (Q05397 2-1052 limits assumed): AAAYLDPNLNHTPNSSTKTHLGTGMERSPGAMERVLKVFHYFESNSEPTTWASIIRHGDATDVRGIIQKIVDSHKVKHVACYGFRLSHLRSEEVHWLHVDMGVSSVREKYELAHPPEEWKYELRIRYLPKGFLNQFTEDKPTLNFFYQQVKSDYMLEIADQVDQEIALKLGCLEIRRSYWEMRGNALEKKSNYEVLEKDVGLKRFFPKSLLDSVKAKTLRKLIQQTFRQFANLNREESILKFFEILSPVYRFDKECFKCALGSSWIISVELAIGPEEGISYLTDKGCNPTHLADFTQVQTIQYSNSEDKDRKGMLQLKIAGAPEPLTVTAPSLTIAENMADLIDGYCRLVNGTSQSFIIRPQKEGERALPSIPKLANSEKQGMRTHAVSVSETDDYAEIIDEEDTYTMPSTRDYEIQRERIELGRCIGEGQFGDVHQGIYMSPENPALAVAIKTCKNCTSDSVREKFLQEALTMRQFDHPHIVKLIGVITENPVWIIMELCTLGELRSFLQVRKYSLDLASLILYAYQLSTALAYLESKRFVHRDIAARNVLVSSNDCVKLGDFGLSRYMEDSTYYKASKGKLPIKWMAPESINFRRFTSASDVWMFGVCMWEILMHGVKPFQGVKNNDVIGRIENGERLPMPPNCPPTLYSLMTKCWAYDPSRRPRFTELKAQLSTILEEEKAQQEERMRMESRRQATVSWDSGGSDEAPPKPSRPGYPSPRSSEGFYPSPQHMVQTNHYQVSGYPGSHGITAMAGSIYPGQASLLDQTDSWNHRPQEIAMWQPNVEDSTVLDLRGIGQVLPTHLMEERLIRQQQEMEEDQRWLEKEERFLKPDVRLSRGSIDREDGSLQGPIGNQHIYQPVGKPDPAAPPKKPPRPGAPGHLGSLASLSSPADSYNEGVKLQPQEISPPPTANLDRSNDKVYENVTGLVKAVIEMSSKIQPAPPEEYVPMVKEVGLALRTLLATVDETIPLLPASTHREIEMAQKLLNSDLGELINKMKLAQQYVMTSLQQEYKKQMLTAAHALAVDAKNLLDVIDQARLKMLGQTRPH
Target sequence in this assay (Q96SW2 whole entry partner): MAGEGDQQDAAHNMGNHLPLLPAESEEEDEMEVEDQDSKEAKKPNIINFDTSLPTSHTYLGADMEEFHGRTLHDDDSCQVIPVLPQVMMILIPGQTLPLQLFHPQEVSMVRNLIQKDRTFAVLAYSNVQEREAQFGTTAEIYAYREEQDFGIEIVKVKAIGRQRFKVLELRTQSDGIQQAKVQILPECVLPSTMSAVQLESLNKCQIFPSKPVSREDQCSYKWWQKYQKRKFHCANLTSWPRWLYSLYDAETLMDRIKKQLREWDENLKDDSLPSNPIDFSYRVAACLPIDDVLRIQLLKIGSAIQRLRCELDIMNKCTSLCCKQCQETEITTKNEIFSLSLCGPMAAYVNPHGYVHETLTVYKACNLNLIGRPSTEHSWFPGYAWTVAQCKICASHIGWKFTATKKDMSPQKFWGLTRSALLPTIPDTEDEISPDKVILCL

SK-HEP1 [7] = test: cells; details: Homo sapiens, SK-HEP1, 144 h, read-out: pIC50 (converted)
Description: Antiproliferative activity against human SK-HEP1 cells incubated for 6 days by CellTiter-Glo luminescent cell viability assay

HepG2 [8] = test: Antiproliferative activity against human HepG2 cells incubated for 7 to 14 days by methylene blue dye based anchorage independent growth assay; assay type: functional, cell-based; details: time 7-14 day
SK-HEP1 [9] = test: Antiproliferative activity against human SK-HEP1 cells incubated for 7 to 14 days by methylene blue dye based anchorage independent growth assay; assay type: functional, cell-based; details: time 7-14 day
[10] = target: Retinal rod rhodopsin-sensitive cGMP 3',5'-cyclic phosphodiesterase subunit delta (Homo sapiens) (UniProt O43924); test: Induction of PDE6D degradation in human A549 cells at 100 nM to 10000 nM incubated for 18 hrs by immunoblot analysis based protein capillary electrophoresis; assay type: cell-based
Sequence of Retinal rod rhodopsin-sensitive cGMP 3',5'-cyclic phosphodiesterase subunit delta (Homo sapiens) (O43924 whole entry): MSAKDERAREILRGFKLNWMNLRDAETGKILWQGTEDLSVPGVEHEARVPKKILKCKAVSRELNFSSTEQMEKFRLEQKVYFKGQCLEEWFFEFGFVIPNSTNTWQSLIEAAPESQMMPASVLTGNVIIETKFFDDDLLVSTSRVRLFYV

HLE [11] = test: cells; details: Homo sapiens, 144 h, read-out: pIC50 (converted)
Description: Antiproliferative activity against human HLE cells incubated for 6 days by CellTiter-Glo luminescent cell viability assay

HepG2 [12] = test: cells; details: Homo sapiens, HepG2, 144 h, read-out: pIC50 (converted)
Description: Antiproliferative activity against human HepG2 cells incubated for 6 days by CellTiter-Glo luminescent cell viability assay

[13] = Permeability in human Caco-2 cells; assay type: ADME, cell-based
[14] = target: T2, Protein cereblon/Focal adhesion kinase 1; test: Protac activity at CRBN/PTK2 in human Hep3B2.1-7 cells assessed as induction of PTK2 degradation incubated for 18 hrs by protein capillary electrophoresis method; assay type: cell-based; details: hep3b
Target sequence in this assay (Q05397 whole entry): as the sequence (Q05397 whole entry, the tested form may be a part) above
Target sequence in this assay (Q96SW2 whole entry): as the sequence (Q96SW2 whole entry partner) above

Hep3B = test: Antiproliferative activity against human Hep3B2.1-7 cells incubated for 7 to 14 days by methylene blue dye based anchorage independent growth assay; assay type: functional, cell-based; details: time 7-14 day
Huh-7 [15] = test: Antiproliferative activity against human Huh-7 cells incubated for 7 to 14 days by methylene blue dye based anchorage independent growth assay; assay type: functional, cell-based; details: time 7-14 day
HLF1 = test: Antiproliferative activity against human HLF1 cells incubated for 7 to 14 days by methylene blue dye based anchorage independent growth assay; assay type: functional, cell-based; details: time 7-14 day
[16] = Stability in EMEM cell assay buffer containing 10% FCS; assay type: physicochemical; details: cattle
cells [17] = details: Homo sapiens, HuH-1, 144 h, read-out: pIC50 (converted)
Description: Antiproliferative activity against human HuH-1 cells incubated for 6 days by CellTiter-Glo luminescent cell viability assay

HuCCT-1 [18] = test: cells; details: Homo sapiens, HuCCT-1, 144 h, read-out: pIC50 (converted)
Description: Antiproliferative activity against human HuCCT-1 cells incubated for 6 days by CellTiter-Glo luminescent cell viability assay

A549 [19] = test: Antiproliferative activity against C32 in human A549 cells at 3 uM incubated for 21 day; assay type: functional, cell-based
SNU-423 [20] = test: cells; details: Homo sapiens, SNU-423, 144 h, read-out: pIC50 (converted)
Description: Antiproliferative activity against human SNU-423 cells incubated for 6 days by CellTiter-Glo luminescent cell viability assay

[21] = target: Retinal rod rhodopsin-sensitive cGMP 3',5'-cyclic phosphodiesterase subunit delta (Homo sapiens) (UniProt O43924); test: Induction of PDE6D degradation in human A549 cells at 3 uM incubated for 18 hrs by mass spectrometry based total proteome analysis; assay type: cell-based
SNU-423 [22] = test: Antiproliferative activity against human SNU-423 cells incubated for 7 to 14 days by methylene blue dye based anchorage independent growth assay; assay type: functional, cell-based; details: time 7-14 day
cells [23] = details: Homo sapiens, HLF1, 144 h, read-out: pIC50 (converted)
Description: Antiproliferative activity against human HLF1 cells incubated for 6 days by CellTiter-Glo luminescent cell viability assay

SNU-387 [24] = test: Antiproliferative activity against human SNU-387 cells incubated for 7 to 14 days by methylene blue dye based anchorage independent growth assay; assay type: functional, cell-based; details: time 7-14 day
SNU-398 [25] = test: cells; details: Homo sapiens, SNU-398, 144 h, read-out: pIC50 (converted)
Description: Antiproliferative activity against human SNU-398 cells incubated for 6 days by CellTiter-Glo luminescent cell viability assay

[26] = target: T2, Protein cereblon/Focal adhesion kinase 1; test: Protac activity at CRBN/PTK2 in human Hep3B2.1-7 cells assessed as induction of PTK2 degradation incubated for 18 hrs by protein capillary electrophoresis method relative to control; assay type: cell-based; details: Hep3B
Target sequence in this assay (Q05397 2-1052 limits assumed): as the sequence (Q05397 2-1052 limits assumed) above
Target sequence in this assay (Q96SW2 whole entry partner): as the sequence (Q96SW2 whole entry partner) above

C32 = test: Antiproliferative activity against C32 in human […] cells at 3 uM incubated for 21 days; assay type: functional, cell-based; details: time 21.0 day
Huh-7 [27] = test: cells; details: Homo sapiens, Huh-7, 144 h, read-out: pIC50 (converted)
Description: Antiproliferative activity against human Huh-7 cells incubated for 6 days by CellTiter-Glo luminescent cell viability assay

HuCCT-1 [28] = test: Antiproliferative activity against human HuCCT-1 cells incubated for 7 to 14 days by methylene blue dye based anchorage independent growth assay; assay type: functional, cell-based; details: time 7-14 day
SNU-398 [29] = test: Antiproliferative activity against human SNU-398 cells incubated for 7 to 14 days by methylene blue dye based anchorage independent growth assay; assay type: functional, cell-based; details: time 7-14 day
HLE [30] = test: Antiproliferative activity against human HLE cells incubated for 7 to 14 days by methylene blue dye based anchorage independent growth assay; assay type: functional, cell-based; details: time 7-14 day
[31] = target: T3, von Hippel-Lindau disease tumor suppressor/Focal adhesion kinase 1 (Homo sapiens, UniProt Q05397+P40337); test: Protac activity at VHL/PTK2 in human SNU-398 cells assessed as induction of PTK2 degradation incubated for 18 hrs by protein capillary electrophoresis method relative to control; assay type: cell-based
Target sequence in this assay (P40337 whole entry partner): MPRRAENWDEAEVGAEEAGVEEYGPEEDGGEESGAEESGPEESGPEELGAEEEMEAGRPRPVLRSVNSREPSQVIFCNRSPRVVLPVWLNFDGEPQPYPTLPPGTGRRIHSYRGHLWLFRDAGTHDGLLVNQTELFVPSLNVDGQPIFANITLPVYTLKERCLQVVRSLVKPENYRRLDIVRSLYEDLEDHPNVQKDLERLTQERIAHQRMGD
Target sequence in this assay (Q05397 2-1052 limits assumed): as the sequence (Q05397 2-1052 limits assumed) above

[32] = target: T3, von Hippel-Lindau disease tumor suppressor/Focal adhesion kinase 1; test: Protac activity at VHL/PTK2 in human A549 cells assessed as induction of PTK2 degradation at 1 to 100000 nM incubated for 18 hrs in presence of NEDD8 inhibitor […] by protein capillary electrophoresis method; assay type: cell-based; details: dose 1-100000 nM
Target sequence in this assay (P40337 whole entry partner): as the sequence (P40337 whole entry partner) above
Target sequence in this assay (Q05397 2-1052 limits assumed): as the sequence (Q05397 2-1052 limits assumed) above

[33] = target: T3, von Hippel-Lindau disease tumor suppressor/Focal adhesion kinase 1; test: Protac activity at VHL/PTK2 in human Hep3B2.1-7 cells assessed as time required for maximal induction of PTK2 degradation at 3 uM incubated for up to 80 hrs by protein capillary electrophoresis method; details: time hrs <=80
Target sequence in this assay (P40337 whole entry partner): as the sequence (P40337 whole entry partner) above
Target sequence in this assay (Q05397 2-1052 limits assumed): as the sequence (Q05397 2-1052 limits assumed) above

[34] = target: T3, von Hippel-Lindau disease tumor suppressor/Focal adhesion kinase 1; test: Protac activity at VHL/PTK2 in human SK-HEP1 cells assessed as induction of PTK2 degradation incubated for 18 hrs by protein capillary electrophoresis method; assay type: cell-based
Target sequence in this assay (Q05397 whole entry): as the sequence (Q05397 whole entry, the tested form may be a part) above
Target sequence in this assay (P40337 whole entry): as the sequence (P40337 whole entry partner) above

Focal adhesion kinase 1 [35] = target: T1, Focal adhesion kinase 1; test: Inhibition of PTK2 (unknown origin) at 1 uM relative to control
Target sequence in this assay (Q05397 2-1052 limits assumed): as the sequence (Q05397 2-1052 limits assumed) above

SMILES | Activity (HSC-3) | Activity (HuH-1) | IC50 (Focal adhesion kinase 1 [1]) | fraction unbound [2] | Activity (A549 [3]) | IC50 (SNU-387 [4]) | Activity (CFPAC-1) | IC50 (cells [5]) | IC50 (SK-HEP1 [7]) | Activity (HepG2 [8]) | Activity (SK-HEP1 [9]) | Activity [10] | IC50 (HLE [11]) | IC50 (HepG2 [12]) | permeability [13] | Activity (Hep3B) | Activity (Huh-7 [15]) | Activity (HLF1) | Stabilty [16] | IC50 (cells [17]) | also measured
COc1cc(C(=O)NCCOCCOCCOCCC(=O)Nc2cccc3c2C(=O)N(C2CCC(=O)NC2=O)C3=O)ccc1Nc1ncc(C(F)(F)F)c(Oc2cccc3c2C(=O)CC3)n1 (centres undefined) | inactive | inactive | 0.018 µM | 0.04 | inactive | > 25.1 µM | inactive | 25.1 µM | 1.58 µM | inactive | inactive | inactive | > 25.1 µM | > 25.1 µM | Impermeable | inactive | inactive | inactive | Unstable | 25.1 µM | Emax [6]: 79%; pDC50 [14]: 7.9; IC50 (HuCCT-1 [18]): > 25.1 µM; Activity (A549 [19]): inactive; IC50 (SNU-423 [20]): 20 µM; Activity [21]: inactive; Activity (SNU-423 [22]): inactive; IC50 (cells [23]): > 25.1 µM; Activity (SNU-387 [24]): inactive; IC50 (SNU-398 [25]): > 25.1 µM; Emax [26]: 96%; Activity (C32): inactive; IC50 (Huh-7 [27]): > 25.1 µM; Activity (HuCCT-1 [28]): inactive; Activity (SNU-398 [29]): inactive; Activity (HLE [30]): inactive
COc1cc(C(=O)NCCOCCOCCOCC(=O)N[C@H](C(=O)N2C[C@H](O)C[C@H]2C(=O)NCc2ccc(-c3scnc3C)cc2)C(C)(C)C)ccc1Nc1ncc(C(F)(F)F)c(Oc2cccc3c2C(=O)CC3)n1 | inactive | inactive | 0.019 µM | 0.113 | inactive | 5.01 µM | inactive | 6.31 µM | 7.94 µM | inactive | inactive | Active | 10 µM | > 25.1 µM | Impermeable | inactive | inactive | inactive | Stable | 20 µM | Emax [31]: 99%; Activity [32]: inactive; IC50 (HuCCT-1 [18]): 6.31 µM; Activity (A549 [19]): inactive; IC50 (SNU-423 [20]): 6.31 µM; TIME [33]: 20 h; Activity [21]: Active; Activity (SNU-423 [22]): inactive; IC50 (cells [23]): > 25.1 µM; pDC50 [34]: 6.9; Activity (SNU-387 [24]): inactive; IC50 (SNU-398 [25]): 7.94 µM; Activity (C32): inactive; inhibition (Focal adhesion kinase 1 [35]): > 90%; IC50 (Huh-7 [27]): 3.98 µM; Activity (HuCCT-1 [28]): inactive; Activity (SNU-398 [29]): inactive; Activity (HLE [30]): inactive
